Source: publication PMC7617869, “Molecular glues that inhibit deubiquitylase activity and inflammatory signaling” (Nature Structural & Molecular Biology, 2025)
Where “and” joins values, the source holds several entries; their conditions need not be identical. Identical values can stand only once.

Key:
[1] = test system: ISG expression in healthy control PBMCs; experiment: Healthy PBMC type I IFN signaling gene expression array, IFNα2-stimulated; type: cell-based, human; conditions: IFNα2 20 ng/mL, 2 µM, 16 h
Description: NEM). Cell lysates were clarified by centrifugation at 15,000 g for 10 minutes at 4 °C. Clarified lysates were pre-cleared with control uncoupled agarose beads (UM400, LifeSensors) for 30 minutes on a rotator at 4 °C followed by centrifugation at 5,000 g for 2 minutes. Equal amount of pre-cleared lysates from individual samples were incubated with 20 µL Agarose-TUBE beads (pre-equilibrated with 1X Tris-buffered saline (TBS)) overnight on a rotator at 4 °C. Beads were collected by centrifugation at 5,000 g for 2 minutes at RT followed by four stringent washes with 1X TBST (TBS, 0.1% Tween-20). TUBE-pulldown proteins were eluted by boiling Agarose-TUBE beads in 2X LDS sample buffer supplemented with […] DTT for 15 minutes. Eluted proteins were resolved on NuPAGE™ 4–12% Bis–Tris gel followed by Western blotting using anti-IFNAR1 antibody (ab124764, Abcam).
(§1) PBMCs in vitro experiments
(§2) Peripheral blood mononuclear cells (PBMCs) from healthy and SSc donors were separated using density gradient method (Leucosep™, Greiner Bio-One International) from EDTA anticoagulated peripheral blood; isolated cells were washed twice by PBS. PBMCs were then incubated in RPMI1640 […]
For healthy PBMCs, cells were stimulated with 20 ng/mL of IFN (+/- compounds or DMSO). […] Concentration of CXCL10 was determined according to a 4-parameter logistic regression standard curve. […]
For Type I IFN signalling analysis, the human IFN I RT2 Profiler PCR Array (Qiagen, PAMM-016ZE) was performed on available RNA from healthy (n=3) and SSc (n=9) donors. […] Relative expression for each gene was determined, firstly by ∆CT calculated using the geometric mean of 4 housekeeping genes (ACTB, GAPDH, HPRT1, RPLP0), followed by 2^(-∆CT), and expressed as fold change to control, according to manufacturer’s guidance. IFN2α-induced ISGs in healthy donors were determined using a Student’s t-test (two-tail distribution and equal variances) on the triplicate fold change in 2^(-ΔCT) values between […]
(§3) R Foundation for Statistical Computing). The IFN2α inducible genes determined in healthy donors […]

[2] = test system: ISG expression in SSc PBMCs; experiment: SSc PBMC type I IFN signaling gene expression array, unstimulated; type: cell-based, human
Description: as §1, §2
For healthy PBMCs, cells were stimulated with 20 ng/mL of IFN (+/- compounds or DMSO). For SSc PBMCs, cells were in basal conditions with no additional IFN stimulation. Cells were centrifuged at 300 g for 10 minutes. […]
RNA was extracted from cell pellets using TRIzol™ (ThermoFisher
Scientific, Waltham, MA) and processed using Quick-RNA Miniprep Kit (Zymo Research) as per the manufacturer’s instruction.
For Type I IFN signalling analysis, the human IFN I RT2 Profiler PCR Array (Qiagen, PAMM-016ZE) was performed on available RNA from healthy (n=3) and SSc (n=9) donors. RNA was converted to cDNA using RT2 First Strand Kit (Qiagen). Next, the cDNA was mixed with RT2 SYBR Green Mastermix (Qiagen, Venlo). Successful PCR performance was confirmed by assay tests for genomic DNA contamination, RNA sample quality, as well as single melt curve determination and <35 Ct for each gene, leading to validated gene expression of 67 genes. Relative expression for each gene was determined, firstly by ∆CT calculated using the geometric mean of 4 housekeeping genes (ACTB, GAPDH, HPRT1, RPLP0), followed by 2^(-∆CT), and expressed as fold change to control, according to manufacturer’s guidance. IFN2α-induced ISGs in healthy donors were determined using a Student’s t-test (two-tail distribution and equal variances) on the triplicate fold change in 2^(-ΔCT) values between […]
donors). Heatmaps were generated using the “pheatmap” function in R (v4.0.2) and RStudio (v1.3.1093) applying row scaling to standardise the expression data across samples (R core team 2020.
as §3
171-C. To account for Type I IFN signalling heterogeneity across samples, the mean 2^(-∆CT) for each […]
relative gene expression, illustrated as a fold change and visualised in log2. The Type I IFN signalling array data for the patient samples is included in Source Data Figure 6, Extended Data Fig. 9.

[3] = unstimulated PBMCs from SSc patients, one value per patient (P1-P9)

O=C(NC1C2CNCC21)c1nn(C(=O)c2c(Cl)cccc2Cl)cc1NC(=O)c1c(Cl)cccc1Cl (stereo not drawn) [FX-171-C]
IFN-induced ISG expression (in words) [1]: less reduction in ISG expression | ISG expression (in words) ([2]; SSc PBMCs (n = 9), 2 µM, 16 h, compared to AP-5-145): lesser effect | ADAR, Type I IFN signalling array raw data [2, 3]: 3.858 and 4.274 and 4.001 and 4.68 and 4.777 and 4.208 and 3.331 and 4.913 and 3.918 | BST2, Type I IFN signalling array raw data [2, 3]: 3.573 and 2.8591 and 2.177 and 3.614 and 3.672 and 2.327 and 3.468 and 1.591 and 2.873 | CASP1, Type I IFN signalling array raw data [2, 3]: 2.548 and 2.002 and 1.941 and 1.134 and 2.888 and 1.296 and 2.046 and 2.574 and 1.867 | CD86, Type I IFN signalling array raw data [2, 3]: 6.165 and 2.65 and 5.65 and 3.485 and 4.729 and 3.419 and 6.169 and 4.499 and 4.78 | CXCL10, Type I IFN signalling array raw data [2, 3]: 5.471 and 2.917 and 2.582 and 4.742 and 4.877 and 6.905 and 4.483 and 4.8707 and 3.923 | DDX58, Type I IFN signalling array raw data [2, 3]: 3.35 and 3.309 and 2.1354 and 2.913 and 3.785 and 3.502 and 1.974 and 1.829 and 2.968 | GBP1, Type I IFN signalling array raw data [2, 3]: 2.688 and 1.367 and 1.422 and 2.895 and 1.583 and 2.086 and 0.7206 and 2.179 and 0.5673 | IFI6, Type I IFN signalling array raw data [2, 3]: 3.893 and 2.681 and 0.9581 and 2.49 and 3.897 and 2.026 and 3.3942 and 1.435 and 1.657 | IFI16, Type I IFN signalling array raw data [2, 3]: 1.765 and 1.775 and 1.077 and 1.992 and 2.377 and 1.622 and 1.064 and 1.533 and 1.821 | IFIH1, Type I IFN signalling array raw data [2, 3]: 4.423 and 3.6 and 2.511 and 3.468 and 5.097 and 3.98 and 3.849 and 3.949 and 3.417 | IFIT1, Type I IFN signalling array raw data [2, 3]: 4.29 and 4.385 and 1.626 and 3.83 and 6.5533 and 6.518 and 4.252 and 2.844 and 3.475 | IFIT2, Type I IFN signalling array raw data [2, 3]: 4.664 and 3.908 and 1.678 and 5.248 and 5.235 and 3.764 and 3.486 and 3.028 and 3.269 | IFIT3, Type I IFN signalling array raw data [2, 3]: 3.799 and 3.675 and 1.209 and 4.928 and 5.414 and 5.436 and 3.503 and 5.877 and 2.486 | IFITM1, Type I IFN signalling array raw data [2, 3]: 0.9488 and 1.1781 and 0.3954 and 0.8994 and 1.9714 and 0.8768 and 1.144 and 1.6293 and 0.7125 | IFITM2, Type I IFN signalling array raw data [2, 3]: 4.648 and 5.173 and 4.79 and 4.974 and 4.481 and 3.9861 and 4.845 and 5.367 and 4.762 | IFITM3, Type I IFN signalling array raw data [2, 3]: 3.968 and 3.916 and 1.59 and 3.568 and 4.151 and 2.877 and 3.902 and 1.131 and 2.5357 | IRF1, Type I IFN signalling array raw data [2, 3]: 2.547 and 1.821 and 1.073 and 2.335 and 1.158 and 0.9908 and 0.6649 and 1.927 and 1.207 | IRF7, Type I IFN signalling array raw data [2, 3]: 6.802 and 6.586 and 3.986 and 5.798 and 5.443 and 4.601 and 5.372 and 4.2831 and 3.547 | IRF9, Type I IFN signalling array raw data [2, 3]: 2.19 and 2.335 and 0.975 and 2.229 and 2.461 and 1.8963 and 1.69 and 1.214 and 1.521 | ISG15, Type I IFN signalling array raw data [2, 3]: 3.986 and 3.922 and 0.692 and 4.262 and 5.477 and 7.495 and 2.508 and 1.711 and 2.311 | ISG20, Type I IFN signalling array raw data [2, 3]: 2.62 and 3.224 and 2.385 and 3.3 and 3.623 and 2.618 and 2.595 and 4.036 and 2.585 | MX1, Type I IFN signalling array raw data [2, 3]: 3.107 and 4.405 and 1.261 and 5.21 and 5.062 and 3.692 and 3.866 and 4.591 and 2.854 | MX2, Type I IFN signalling array raw data [2, 3]: 4.125 and 4.0818 and 1.607 and 3.741 and 5.0213 and 4.032 and 3.318 and 2.653 and 2.691 | MYD88, Type I IFN signalling array raw data [2, 3]: 3.738 and 3.075 and 2.51 and 2.925 and 2.927 and 2.376 and 3.074 and 1.908 and 3.454 | NMI, Type I IFN signalling array raw data [2, 3]: 2.143 and 1.85 and 1.491 and 1.973 and 3.716 and 1.264 and 1.346 and 2.497 and 2.32 | OAS1, Type I IFN signalling array raw data [2, 3]: 4.424 and 3.836 and 1.737 and 5.327 and 4.793 and 3.413 and 3.498 and 2.187 and 2.863 | OAS2, Type I IFN signalling array raw data [2, 3]: 4.608 and 3.615 and 1.642 and 3.798 and 4.119 and 3.655 and 2.504 and 2.941 and 2.821 | PML, Type I IFN signalling array raw data [2, 3]: 4.552 and 5.075 and 2.988 and 4.3611 and 4.177 and 3.436 and 3.3349 and 3.807 and 3.407 | SOCS1, Type I IFN signalling array raw data [2, 3]: 3.578 and 4.266 and 3.582 and 3.8466 and 3.6323 and 2.7 and 3.416 and 2.793 and 2.573 | STAT1, Type I IFN signalling array raw data [2, 3]: 0.977 and -0.7577 and -0.7275 and 0.7898 and -0.2011 and 0.5637 and -1.166 and 0.2201 and -0.8389 | STAT2, Type I IFN signalling array raw data [2, 3]: 3.968 and 3.159 and 2.8038 and 5.573 and 3.712 and 3.001 and 2.882 and 3.307 and 2.683 | STAT3, Type I IFN signalling array raw data [2, 3]: 6.676 and 4.39 and 1.897 and 3.494 and 2.053 and 1.773 and 1.353 and 3.435 and 1.673 | TAP1, Type I IFN signalling array raw data [2, 3]: 2.3591 and 1.9257 and 1.563 and 2.7124 and 1.578 and 1.336 and 0.8182 and 1.844 and 1.137 | TNFSF10, Type I IFN signalling array raw data [2, 3]: 3.902 and 3.285 and 2.141 and 3.031 and 3.789 and 2.995 and 3.1028 and 5.015 and 2.882
